Test results published in US12252459B2, “Hydrazone amide derivatives and use thereof in preparation of anti-osteoporosis drugs” (SHENZHEN CELL INSPIRE PHARMACEUTICAL DEVELOPMENT CO., LTD., priority 2019, dated 2025).

How the values were obtained:
[1] = system: RANKL-induced osteoclast differentiation of RAW264.7 cells; assay: Osteoclast differentiation inhibition experiment (RANKL-induced, TRAP staining); assay type: cell-based; conditions: for IC50: RAW264.7 cells, 100 ng/ml RANKL, 5 days, TRAP staining, osteoclasts with 3 or more nuclei counted; for Therapeutic index SI (CC50/IC50): selective inhibition constant = CC50 (RAW264.7 cytotoxicity) / IC50 (osteoclast differentiation)
Protocol: Example 33: Osteoclast Differentiation Inhibition Experiment
(§1) RAW264.7 cells were cultured in vitro using DMEM high glucose medium containing 10% fetal bovine serum at 37° C. under 5% CO2 for routine maintenance culture and passage.
(§2) S2. Compound Intervention
The logarithmic growth phase cells were collected and formulated into a cell suspension at a concentration of 2×10^4 cells/mL, and the cell suspension were added to a 96-well cell culture plate. After culturing in a carbon dioxide incubator for 24 hours, the culture medium was replaced with a medium containing 100 ng/ml RANKL and the compound at different concentrations to continue culturing for 5 days, while changing the medium containing the same RANKL concentration and compound concentration every 2 days. The osteoclasts were stained with the TRAP staining method and measured on day 5. Three wells were set for each concentration, and a control group without the compound treatment was set for comparison.
The differentiated osteoclasts were stained with TRAP kit, and the number of osteoclasts fused by 3 or more nuclei was counted.
(§3) S4. Processing of Results
The inhibition rate of each compound on RANKL-induced osteoclast differentiation was calculated according to the following equation: […]
An osteoclast differentiation inhibition curve of each compound was plotted with the osteoclast differentiation inhibition rate as the ordinate and the logarithm of the compound concentration as the abscissa. According to the osteoclast differentiation inhibition rate by each compound, the half maximal inhibitory concentration IC50 was calculated, i.e., the concentration of the compound that is required for 50% osteoclast differentiation inhibition.
(§4) In addition, a selective inhibition constant of each compound was calculated according to the equation: selective inhibition constant (SI)=CC50/IC50, in order to evaluate the administration safety of each compound.
Based on the value of the selective index SI=CC50/IC50, the anti-osteoporotic differentiation effect of the compound was evaluated according to the following criteria.

[2] = Cytotoxicity assay (MTT) on RAW264.7 cells; assay type: cell-based; conditions: mouse, RAW264.7 cell growth inhibition, MTT method
Protocol: Example 32: Cytotoxicity Assay of Compounds
as §1, §2
The logarithmic growth phase cells were collected and formulated into a cell suspension at a concentration of 1×10^5 cells/mL, and the cell suspension was added to a 96-well cell culture plate. After culturing in a carbon dioxide incubator for 24 hours, the culture medium was replaced with a medium containing the compound at different concentrations to continue culturing for 2 days, and the cytotoxicity was detected on day 3. The compound to be tested was prepared into solutions of different concentrations using DMSO. Three wells were set for each concentration, and a control group without the compound treatment was set for comparison. […]
as §3
The RAW264.7 cell growth inhibition rate by each compound was calculated according to the following equation: […]
A cell growth inhibition curve of each compound was plotted with the RAW264.7 cell growth inhibition rate as the ordinate and the logarithm of the compound concentration as the abscissa. According to the inhibition rate of each compound on the cells, the 50% cytotoxic concentration CC50 was calculated, i.e., the concentration of the compound that is required for 50% inhibition of cell growth.
as §4

Row | Structure (SMILES) | IC50 ([1]; Mus musculus, RAW264.7, 120 h) | IC50 [1] | Therapeutic index SI (CC50/IC50) [1] | CC50 at 2 days [2]
1 | CCOC(=O)c1sc(NC(=O)/C(=N/Nc2cccc(C(=O)O)c2)C(C)=O)nc1C [Compound 3] | – | 0.05 µM | 1625 | 81.2 µM
2 | CCOC(=O)c1sc(NC(=O)/C(=N/Nc2ccccc2O)C(C)=O)nc1C [Compound 5] | 2.45 µM | – | 21 | 52.6 µM
3 | CCOC(=O)c1sc(NC(=O)/C(=N/Nc2ccccc2CO)C(C)=O)nc1C [Compound 6] | 12.1 µM | – | 6 | 77.9 µM
4 | CCOC(=O)c1sc(NC(=O)/C(=N/Nc2cc(C)ccc2C(=O)O)C(C)=O)nc1C [Compound 8] | 3.85 µM | – | 15 | 57.2 µM
5 | CCOC(=O)c1sc(NC(=O)/C(=N/Nc2ccc(C)cc2C(=O)O)C(C)=O)nc1C [Compound 9] | 4.63 µM | – | 19 | 89 µM
6 | CCOC(=O)c1sc(NC(=O)/C(=N/Nc2c(C#N)cccc2C(=O)O)C(C)=O)nc1C [Compound 12] | – | 0.23 µM | 1701 | 391 µM
7 | CCOC(=O)c1sc(NC(=O)/C(=N/Nc2ccncc2C(=O)O)C(C)=O)nc1C [Compound 16] | 22.3 µM | – | 20 | 451 µM
8 | CCOC(=O)c1sc(NC(=O)/C(=N/Nc2cc(C(=O)O)ccc2C(=O)O)C(C)=O)nc1C [Compound 19] | 10.2 µM | – | 20 | 202 µM
9 | CC(=O)/C(=N\Nc1ccccc1C(=O)O)C(=O)Nc1nc(C)cs1 [Compound 21] | 2.58 µM | – | 85 | 220 µM
10 | CC(=O)/C(=N\Nc1ccccc1C(=O)O)C(=O)Nc1nccs1 [Compound 22] | 3.66 µM | – | 41 | 149 µM
11 | CC(=O)/C(=N\Nc1ccccc1C(=O)O)C(=O)Nc1ccccc1 [Compound 24] | 11.1 µM | – | 7 | 75.2 µM
12 | CC(=O)/C(=N\Nc1ccccc1C(=O)O)C(=O)NC1CCNCC1 [Compound 26] | 8.85 µM | – | 7 | 65.8 µM
13 | CC(=O)/C(=N\Nc1ccccc1C(=O)O)C(=O)N1CCc2ccccc2C1 [Compound 27] | 9.03 µM | – | 15 | 135 µM
14 | CC(=O)/C(=N\Nc1ccccc1C(=O)O)C(=O)Nc1ccc(C#N)cn1 [Compound 29] | 3.21 µM | – | 37 | 119 µM
15 | CC(=O)/C(=N\Nc1ccccc1C(=O)O)C(=O)Nc1cccc(O)n1 [Compound 30] | 15.4 µM | – | 13 | 198 µM

The next lines start with results.

Row | IC50 ([1]; Mus musculus, RAW264.7, 120 h) | IC50 [1] | Structure (SMILES) | Therapeutic index SI (CC50/IC50) [1] | CC50 at 2 days [2]
16 | 1.24 µM | – | CCOC(=O)c1sc(NC(=O)/C(=N/Nc2ccccc2C(=O)O)C(C)=O)nc1C [Compound 1] | 50 | 62.5 µM
17 | 0.73 µM | – | CCOC(=O)c1sc(NC(=O)/C(=N/Nc2ccc(C(=O)O)cc2)C(C)=O)nc1C [Compound 2] | 95 | 69.2 µM
18 | 1.26 µM | – | CCOC(=O)c1sc(NC(=O)/C(=N/Nc2ccccc2C(=O)OC)C(C)=O)nc1C [Compound 4] | 65 | 82.1 µM
19 | 0.99 µM | – | CCOC(=O)c1sc(NC(=O)/C(=N/Nc2c(C)cccc2C(=O)O)C(C)=O)nc1C [Compound 7] | 63 | 62.8 µM
20 | 0.4 µM | – | CCOC(=O)c1sc(NC(=O)/C(=N/Nc2ccc(F)cc2C(=O)O)C(C)=O)nc1C [Compound 10] | 308 | 123 µM
21 | 1.02 µM | – | CCOC(=O)c1sc(NC(=O)/C(=N/Nc2cc(F)ccc2C(=O)O)C(C)=O)nc1C [Compound 11] | 56 | 57.2 µM
22 | 0.88 µM | – | CCOC(=O)c1sc(NC(=O)/C(=N/Nc2cc(C#N)ccc2C(=O)O)C(C)=O)nc1C [Compound 13] | 71 | 62.3 µM
23 | 0.89 µM | – | CCOC(=O)c1sc(NC(=O)/C(=N/Nc2ccc([N+](=O)[O-])cc2C(=O)O)C(C)=O)nc1C [Compound 14] | 47 | 41.9 µM
24 | 1.56 µM | – | CCOC(=O)c1sc(NC(=O)/C(=N/Nc2ccc(Cl)cc2C(=O)O)C(C)=O)nc1C [Compound 15] | 22 | 33.9 µM
25 | 0.46 µM | – | CCOC(=O)c1sc(NC(=O)/C(=N/Nc2c(C(=O)O)cccc2C(=O)O)C(C)=O)nc1C [Compound 18] | 271 | 125 µM
26 | 1.23 µM | – | CCOC(=O)c1sc(NC(=O)/C(=N/Nc2ccc(N)cc2C(=O)O)C(C)=O)nc1C [Compound 20] | 40 | 49.1 µM
27 | 0.78 µM | – | CC(=O)/C(=N\Nc1ccccc1C(=O)O)C(=O)Nc1nc2ccccc2s1 [Compound 23] | 53 | 41.1 µM
28 | 0.36 µM | 0.27 µM | CC(=O)/C(=N\Nc1ccccc1C(=O)O)C(=O)Nc1ccccn1 [Compound 25] | 301 | 81.2 µM
29 | 0.99 µM | – | CC(=O)/C(=N\Nc1ccccc1C(=O)O)C(=O)N1CCOCC1 [Compound 28] | 77 | 76.2 µM
